Measurements published in patent US5583142A, “Analgesic and nootropic drugs” (priority 1992, dated 1996).

type: in vivo, mouse; conditions: max. dose not affecting mice behaviour
Description: The analgesic action was detected in mouse, rat, guinea pig and dog. The mouse was subjected to hot plate and writhing tests; the rat to tail-flick and paw-pressure tests; the guinea pig to paw-pressure test only; the dog to the test described by Vainio et al. [J. Vet. Pharmacol. Ther., 12, 225-231 (1989)] using an electric stimulation. Consequently, the claimed compounds were tested with pain being induced by stimuli of different nature: thermal (hot plate and tail flick), chemical (writhing by acetic acid), mechanical (paw pressure) and electrical (cutaneous stimulation).
Potency, efficacy and toxicity of SM21, PG9 and SM32 in comparison with
four principal reference analgesic drugs tested in mouse. As analgesic

For `CC(Oc1ccc(C(F)(F)F)cc1)C(=O)O[C@H]1C[C@H]2CC[C@@H](C1)N2C` (some centres unmarked) [SM19], which “ANALGESIC ACTIVITY (degree of analgesia, latency on hot plate)” value (“ANALGESIC ACTIVITY” below) is on record?
The value was “+ (Latency under or equal to 25" +-)”.

For `CC(Sc1ccc(Cl)cc1)C(=O)OC1CC2CCC(C1)N2C` (single isomer, unassigned) [(S) SS20 (+)], which “ANALGESIC ACTIVITY” value is on record?
The value was “++ (Latency under or equal to 30" ++-)”.

Which “ANALGESIC ACTIVITY” value does the source give for `CC(Oc1ccc(C#N)cc1)C(=O)O[C@H]1C[C@H]2CC[C@@H](C1)N2C` (some centres unmarked) [SS26] here?
Its value is “++ (Latency under or equal to 30" ++-)”.

For `CCN1C2CCC1CC(OC(=O)C(C)Oc1ccc(Cl)cc1)C2` (centres unmarked) [GC9], which “ANALGESIC ACTIVITY” value is on record?
Its value is “++ (Latency under or equal to 30" ++-)”.

For `CC(Oc1cccc(Cl)c1)C(=O)OC1CC2CCC(C1)N2C` (centres unmarked) [SM12], which “ANALGESIC ACTIVITY” value is on record?
Its value is “++ (Latency under or equal to 30" ++-)”.

With `CC(Oc1ccc(Cl)cc1)C(=O)OC1CC2CCC(C1)N2C` (single isomer, unassigned) [(S) ET142 (-)] as the molecule, how does the “ANALGESIC ACTIVITY” value read?
Its value is “++ (Latency under or equal to 30" ++-)”.

Which “ANALGESIC ACTIVITY” value does the source give for `CC(C(=O)OC1CC2CCC(C1)N2C)c1ccccc1Cl` (centres unmarked) [PG14] here?
Its value is “+++ (Latency under or equal to 35" +++-)”.

Which “ANALGESIC ACTIVITY” value does the source give for `CC(C)C(Sc1ccc(Cl)cc1)C(=O)OC1CC2CCC(C1)N2C` (centres unmarked) [AC11] here?
Its value is “+ (Latency under or equal to 25" +-)”.

Which “ANALGESIC ACTIVITY” value does the source give for `CC(Oc1ccc(F)cc1)C(=O)OC1CC2CCC(C1)N2C` (single isomer, unassigned) [(R) NR100 (+)] here?
Its value is “++++ (Latency above 35" ++++-)”.

For `CC(Oc1ccc(F)cc1)C(=O)O[C@H]1C[C@H]2CC[C@@H](C1)N2C` (some centres unmarked) [NR100], which “ANALGESIC ACTIVITY” value is on record?
The value was “++++ (Latency above 35" ++++-)”.

With `CC(C(=O)O[C@H]1C[C@H]2CC[C@@H](C1)N2C)c1ccc(Cl)cc1` (stereo partly drawn) [PG-8, 3α-Tropanyl 2-(p-chlorophenyl)-propionate] as the molecule, how does the “ANALGESIC ACTIVITY” value read?
Its value is “+++ (Latency under or equal to 35" +++-)”.

With `CCC(Oc1ccc(Cl)cc1)C(=O)O[C@H]1C[C@H]2CC[C@@H](C1)N2CC` (stereo partly drawn) [GC-11, N-Ethyl-3α-nortropanyl 2-(p-chlopophenoxy)butyrate] as the molecule, how does the “ANALGESIC ACTIVITY” value read?
The value was “++ (Latency under or equal to 30" ++-)”.

Which “ANALGESIC ACTIVITY” value does the source give for `CC(C)Cc1ccc(C(C)C(=O)OC2CC3CCC(C2)N3C)cc1` (centres unmarked) [PG16] here?
The value was “+ (Latency under or equal to 25" +-)”.

For `CCC(C(=O)OC1CC2CCC(C1)N2C)N(C)c1ccc(Cl)cc1` (centres unmarked) [AC13], which “ANALGESIC ACTIVITY” value is on record?
Its value is “++++ (Latency above 35" ++++-)”.

For `CC(C(=O)OC1CC2CCC(C1)N2C)c1ccc(N)cc1` (centres unmarked) [PG5], which “ANALGESIC ACTIVITY” value is on record?
The value was “+ (Latency under or equal to 25" +-)”.

With `CC(Oc1ccc(Cl)c(Cl)c1)C(=O)OC1CC2CCC(C1)N2C` (centres unmarked) [SS10] as the molecule, how does the “ANALGESIC ACTIVITY” value read?
The value was “+ (Latency under or equal to 25" +-)”.

For `CC(C(=O)OC1CC2CCC(C1)N2C)c1ccc(F)cc1` (centres unmarked) [PG21], which “ANALGESIC ACTIVITY” value is on record?
Its value is “+++ (Latency under or equal to 35" +++-)”.

Which “ANALGESIC ACTIVITY” value does the source give for `CC(Oc1ccc(Cl)cc1)C(=O)OC1CC2CCC(C1)N2C` (single isomer, unassigned) [(R) ET142 (+)] here?
The value was “+++ (Latency under or equal to 35" +++-)”.

With `CC(Oc1ccc2ccccc2c1)C(=O)O[C@H]1C[C@H]2CC[C@@H](C1)N2C` (stereo partly drawn) [AC-19, 3α-Tropanyl 2-(β-naphthoxy)propionate] as the molecule, how does the “ANALGESIC ACTIVITY” value read?
Its value is “+++ (Latency under or equal to 35" +++-)”.

With `CC(Nc1ccccc1)C(=O)OC1CC2CCC(C1)N2C` (centres unmarked) [SS29] as the molecule, how does the “ANALGESIC ACTIVITY” value read?
The value was “+++ (Latency under or equal to 35" +++-)”.

For `CC(Sc1ccc(Cl)cc1)C(=O)O[C@H]1C[C@H]2CC[C@@H](C1)N2C` (stereo partly drawn) [SS-20, 3α-Tropanyl 2-(p-chlorophenylthio)propionate], which “ANALGESIC ACTIVITY” value is on record?
The value was “+++ (Latency under or equal to 35" +++-)”.

With `CC(Nc1ccc(Cl)cc1)C(=O)OC1CC2CCC(C1)N2C` (stereo not drawn) [AC5, 3α-Tropanyl 2-(p-chlorophenylamino)-propionate] as the molecule, how does the “ANALGESIC ACTIVITY” value read?
Its value is “+ (Latency under or equal to 25" +-)”.

With `CC(Sc1ccc(Br)cc1)C(=O)OC1CC2CCC(C1)N2C` (centres unmarked) [SM17] as the molecule, how does the “ANALGESIC ACTIVITY” value read?
Its value is “++++ (Latency above 35" ++++-)”.

Which “ANALGESIC ACTIVITY” value does the source give for `CCC(Oc1ccc2cc(Br)ccc2c1)C(=O)OC1CC2CCC(C1)N2C` (centres unmarked) [AC31] here?
Its value is “+ (Latency under or equal to 25" +-)”.

For `CCC(C(=O)OC1CC2CCC(C1)N2C)c1ccc(Br)cc1` (centres unmarked) [PG24], which “ANALGESIC ACTIVITY” value is on record?
The value was “+++ (Latency under or equal to 35" +++-)”.

For `CC(C(=O)OC1CC2CCC(C1)N2C)c1ccc([N+](=O)[O-])cc1` (centres unmarked) [PG4], which “ANALGESIC ACTIVITY” value is on record?
Its value is “+ (Latency under or equal to 25" +-)”.

With `CC(Oc1ccc(F)cc1)C(=O)OC1CC2CCC(C1)N2C` (single isomer, unassigned) [(S) NR100 (-)] as the molecule, how does the “ANALGESIC ACTIVITY” value read?
Its value is “+++ (Latency under or equal to 35" +++-)”.

Which “ANALGESIC ACTIVITY” value does the source give for `CC(Oc1ccc(Br)cc1)C(=O)O[C@H]1C[C@H]2CC[C@@H](C1)N2C` (some centres unmarked) [SM15] here?
The value was “++ (Latency under or equal to 30" ++-)”.

Which “ANALGESIC ACTIVITY” value does the source give for `COc1ccc(C(C)C(=O)OC2CC3CCC(C2)N3C)cc1` (centres unmarked) [PG18] here?
The value was “+ (Latency under or equal to 25" +-)”.

Which “ANALGESIC ACTIVITY” value does the source give for `CSc1ccc(OC(C)C(=O)O[C@H]2C[C@H]3CC[C@@H](C2)N3C)cc1` (some centres unmarked) [NR95] here?
Its value is “+ (Latency under or equal to 25" +-)”.

Which “ANALGESIC ACTIVITY” value does the source give for `CC(C(=O)OC1CC2CCC(C1)N2C)c1cccc(Cl)c1` (centres unmarked) [PG13] here?
Its value is “+++ (Latency under or equal to 35" +++-)”.

For `CCC(Oc1ccc(F)cc1)C(=O)OC1CC2CCC(C1)N2C` (centres unmarked) [AC15], which “ANALGESIC ACTIVITY” value is on record?
The value was “++++ (Latency above 35" ++++-)”.

Which “ANALGESIC ACTIVITY” value does the source give for `CN1[C@@H]2CC[C@H]1C[C@@H](OC(=O)C(C)(C)Oc1ccc(Cl)cc1)C2` [SM-25, 3α-Tropanyl 2-(p-chlorophenoxy)-isobutyrate] here?
Its value is “++ (Latency under or equal to 30" ++-)”.

With `CCC(Sc1ccc(Cl)cc1)C(=O)OC1CC2CCC(C1)N2C` (single isomer, unassigned) [(R) SM35 (+), 3α-Tropanyl 2-(p-chlorophenylthio)butyrate] as the molecule, how does the “ANALGESIC ACTIVITY” value read?
Its value is “+++ (Latency under or equal to 35" +++-)”.

Which “ANALGESIC ACTIVITY” value does the source give for `CC(Oc1ccc(Cl)cc1)C(=O)N[C@H]1C[C@H]2CC[C@@H](C1)N2C` (stereo partly drawn) [SS-16, N-(3α-tropanyl)-2-(p-chlorophenoxy)-propionamide] here?
The value was “+ (Latency under or equal to 25" +-)”.

Which “ANALGESIC ACTIVITY” value does the source give for `CC(Sc1ccc(Cl)cc1)C(=O)OC1CC2CCC(C1)N2C` (single isomer, unassigned) [(R) SS20 (+)] here?
The value was “+++ (Latency under or equal to 35" +++-)”.

Which “ANALGESIC ACTIVITY” value does the source give for `CCC(Sc1ccc(Cl)cc1)C(=O)OC1CC2CCC(C1)N2C` (single isomer, unassigned) [(S) SM35 (-), 3α-Tropanyl 2-(p-chlorophenylthio)butyrate] here?
The value was “++ (Latency under or equal to 30" ++-)”.

For `CC(C(=O)O[C@H]1C[C@H]2CC[C@@H](C1)N2C)N(C)c1ccc(Cl)cc1` (stereo partly drawn) [AC6, 3α-Tropanyl 2-[N-methyl-N(p-chlorophenyl)amino]-propionate], which “ANALGESIC ACTIVITY” value is on record?
The value was “++ (Latency under or equal to 30" ++-)”.

For `CC(Sc1ccccc1)C(=O)OC1CC2CCC(C1)N2C` (centres unmarked) [SS12], which “ANALGESIC ACTIVITY” value is on record?
Its value is “++ (Latency under or equal to 30" ++-)”.

Which “ANALGESIC ACTIVITY” value does the source give for `CC(Sc1ccc(F)cc1)C(=O)OC1CC2CCC(C1)N2C` (centres unmarked) [SM23] here?
The value was “++ (Latency under or equal to 30" ++-)”.

For `CC(C(=O)OC1CC2CCC(C1)N2C)c1ccccc1Br` (centres unmarked) [PG23], which “ANALGESIC ACTIVITY” value is on record?
Its value is “++ (Latency under or equal to 30" ++-)”.

For `CCC(Sc1ccc(Cl)cc1)C(=O)O[C@H]1C[C@H]2CC[C@@H](C1)N2C` (stereo partly drawn) [SM-35, 3α-Tropanyl 2-(p-chlorophenylthio)-butyrate], which “ANALGESIC ACTIVITY” value is on record?
Its value is “+++ (Latency under or equal to 35" +++-)”.

Which “ANALGESIC ACTIVITY” value does the source give for `Cc1ccc(SC(C)C(=O)OC2CC3CCC(C2)N3C)cc1` (centres unmarked) [SS21] here?
The value was “+ (Latency under or equal to 25" +-)”.

same assay, conditions: mouse; in μmoles/kg

With `CN1CC[C@]23c4c5ccc(O)c4O[C@H]2[C@@H](O)C=C[C@H]3[C@H]1C5.Cl` [Morphine HCl, reference compound] as the molecule, how does the “dose required to obtain analgesia equivalent to that of the claimed compounds” value read?
Its value is “three times lower”.
